Results published in US20230322769A1, “HETEROAROMATIC RING COMPOUND AS RET KINASE INHIBITOR, AND PREPARATION AND USE THEREOF” (JIANGSU CHIA TAI FENGHAI PHARMACEUTICAL CO., LTD., priority 2020, published 2023).
Where two headings read alike, the source gives them in different places.

Columns and labels:
[1] = Tissue distribution assay in mice; assay type: in vivo, mouse; conditions: for concentration at 4 h: male, mouse
Method: Male NVSG mice (weighing 20-25 g) were orally administered compound 94 and Loxo-292 at a dose of 30 mg/kg. The plasma and tissue samples of the liver, the brain and the lungs and the like of the animals are collected 4 h after administration. Blood plasma collection: The whole blood was collected at about 80-100 μL in EDTA-containing EP tubes and centrifuged at 4000 g for 5 min, and then the upper plasma was collected and stored at −80° C.
Tissue collection: After the animals were euthanized, the tissues were collected and snap-frozen in liquid nitrogen, 5 mL of homogenization solution (50% acetonitrile) was added per gram of tissue. The tissues were processed into homogenates in a tissue homogenizer and stored at −80° C. The concentration of compound in the plasma and tissue samples was quantified by liquid chromatography-tandem mass spectrometry (LC-MS/MS).

[2] = target: KDR (VEGFR2) (Homo sapiens (Human), UniProt P35968); assay: HTRF kinase activity assay, KDR; assay type: biochemical; conditions: 20 μM ATP
Sequence of KDR (VEGFR2) (P35968 20-1356): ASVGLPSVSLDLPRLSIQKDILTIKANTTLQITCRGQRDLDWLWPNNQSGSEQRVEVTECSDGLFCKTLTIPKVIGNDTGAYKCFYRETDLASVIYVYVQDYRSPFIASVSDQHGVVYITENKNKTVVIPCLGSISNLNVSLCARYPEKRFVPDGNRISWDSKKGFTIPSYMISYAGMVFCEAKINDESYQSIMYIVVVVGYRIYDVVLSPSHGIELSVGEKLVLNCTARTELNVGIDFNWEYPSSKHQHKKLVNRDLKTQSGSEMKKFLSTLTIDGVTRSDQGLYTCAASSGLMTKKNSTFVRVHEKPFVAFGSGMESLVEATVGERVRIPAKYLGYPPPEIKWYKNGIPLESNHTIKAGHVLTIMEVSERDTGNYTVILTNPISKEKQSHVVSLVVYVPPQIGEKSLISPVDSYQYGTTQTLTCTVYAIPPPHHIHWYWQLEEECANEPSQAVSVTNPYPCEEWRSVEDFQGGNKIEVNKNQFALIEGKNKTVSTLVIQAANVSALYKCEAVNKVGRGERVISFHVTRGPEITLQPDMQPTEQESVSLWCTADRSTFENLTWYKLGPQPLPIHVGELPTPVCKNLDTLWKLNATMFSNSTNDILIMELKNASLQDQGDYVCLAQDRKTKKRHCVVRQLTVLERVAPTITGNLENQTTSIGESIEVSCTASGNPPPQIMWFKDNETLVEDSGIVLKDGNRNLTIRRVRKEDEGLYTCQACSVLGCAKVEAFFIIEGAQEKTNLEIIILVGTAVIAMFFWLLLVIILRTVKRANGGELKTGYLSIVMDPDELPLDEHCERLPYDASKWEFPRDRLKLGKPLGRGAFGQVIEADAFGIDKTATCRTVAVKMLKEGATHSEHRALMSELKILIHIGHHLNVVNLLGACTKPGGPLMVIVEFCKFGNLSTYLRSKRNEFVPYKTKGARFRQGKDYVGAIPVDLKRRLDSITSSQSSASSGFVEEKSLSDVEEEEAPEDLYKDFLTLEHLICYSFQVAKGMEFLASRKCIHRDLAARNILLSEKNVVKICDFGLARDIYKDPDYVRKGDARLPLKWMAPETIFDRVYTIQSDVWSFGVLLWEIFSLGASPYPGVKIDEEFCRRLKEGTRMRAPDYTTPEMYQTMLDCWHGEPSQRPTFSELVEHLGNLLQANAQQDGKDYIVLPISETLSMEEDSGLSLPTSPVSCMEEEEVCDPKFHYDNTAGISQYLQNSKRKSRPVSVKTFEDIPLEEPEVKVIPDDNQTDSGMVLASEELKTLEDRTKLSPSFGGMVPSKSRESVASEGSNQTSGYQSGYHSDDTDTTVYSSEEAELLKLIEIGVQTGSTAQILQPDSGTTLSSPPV

[3] = target: RET wild type (RET WT) (Homo sapiens (Human), UniProt P07949); assay: HTRF kinase activity assay, RET wild type; assay type: biochemical; conditions: 1 μM ATP
Sequence of RET wild type (RET WT) (P07949 29-1114): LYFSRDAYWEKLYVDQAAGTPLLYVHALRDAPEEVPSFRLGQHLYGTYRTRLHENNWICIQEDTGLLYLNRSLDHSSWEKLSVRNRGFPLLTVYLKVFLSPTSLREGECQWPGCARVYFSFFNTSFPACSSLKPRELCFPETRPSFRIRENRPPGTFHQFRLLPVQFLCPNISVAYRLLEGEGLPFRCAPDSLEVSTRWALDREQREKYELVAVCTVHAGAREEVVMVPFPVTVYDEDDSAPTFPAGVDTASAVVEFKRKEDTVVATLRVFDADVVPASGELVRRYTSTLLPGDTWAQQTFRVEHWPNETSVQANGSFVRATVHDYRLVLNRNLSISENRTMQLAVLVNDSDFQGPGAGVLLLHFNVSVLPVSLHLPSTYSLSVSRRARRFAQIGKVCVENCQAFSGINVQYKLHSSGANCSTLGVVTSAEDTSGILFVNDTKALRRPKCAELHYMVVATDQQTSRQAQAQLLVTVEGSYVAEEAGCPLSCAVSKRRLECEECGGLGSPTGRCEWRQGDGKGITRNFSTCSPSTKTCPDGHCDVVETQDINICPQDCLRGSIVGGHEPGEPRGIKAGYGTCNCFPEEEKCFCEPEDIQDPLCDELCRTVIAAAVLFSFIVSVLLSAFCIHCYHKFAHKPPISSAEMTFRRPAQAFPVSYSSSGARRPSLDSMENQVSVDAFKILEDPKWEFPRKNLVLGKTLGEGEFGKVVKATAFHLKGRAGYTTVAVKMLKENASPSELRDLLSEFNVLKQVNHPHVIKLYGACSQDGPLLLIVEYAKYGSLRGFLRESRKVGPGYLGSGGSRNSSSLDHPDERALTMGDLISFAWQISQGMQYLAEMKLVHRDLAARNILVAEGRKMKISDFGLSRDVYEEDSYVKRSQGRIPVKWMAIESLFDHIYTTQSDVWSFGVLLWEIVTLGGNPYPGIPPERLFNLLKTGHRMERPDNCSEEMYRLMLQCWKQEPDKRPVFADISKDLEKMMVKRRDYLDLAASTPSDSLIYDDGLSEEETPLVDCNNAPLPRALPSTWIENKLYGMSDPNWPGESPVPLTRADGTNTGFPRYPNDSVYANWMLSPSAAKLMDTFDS

[4] = tested on: Ba/F3 KIF5B-RET cells; assay: Ba/F3 KIF5B-RET cell inhibition (CellTiter-Glo); assay type: cell-based; conditions: Mus musculus, BaF3, 72 h
Method: Activity Experiment 3: Inhibition of Ba/F3 KIF5B-RET Cells by Prepared Compounds Ba/F3 KIF5B-RET, Ba/F3KIF5B-RET-V804M, Ba/F3 RET-M918T and Ba/F3 KIF5B-RET-G810R cells growing in log phase were harvested and counted using a […]. The cell viability was determined by the trypan blue exclusion method, and the cell viability was kept over 90%. The cell concentration was adjusted, and 90 μL of the cell suspension was added to a 96-well plate. The cells in the 96-well plate were incubated overnight at 37° C. with 5% CO2 and 95% humidity. Corresponding gradient concentrations of drug solutions (the maximum concentration was 1000 nM) were added to the 96-well plate inoculated with cells at 10 μL/well. Triplicate wells were set per drug concentration, and the final concentration of DMSO was 0.1%. The drug-treated cells in the 96-well plate were incubated for another 72 h at 37° C. with 5% CO2 and 95% humidity. After the drug treatment was completed, 100 μL of CellTiter-Glo reagent was added to each well. The cell plate was shaken on an orbital shaker for 5 min to lyse the cells and then let stand at room temperature for 20 min to stabilize the luminescence signals, and then the luminescence values were read. The data were analyzed using the GraphPad Prism 5.0 software. Dose-response curves were fit to the data using nonlinear S-curve regression, and IC50 was calculated from the curves.

[5] = target: hERG potassium channel (Homo sapiens (Human), UniProt Q12809); assay: Inhibition of hERG potassium channel, whole-cell patch clamp in HEK293 cells; conditions: read-out: IC50 for inhibition of hERG potassium channel; HEK293 cells stably expressing hERG, patch clamp
Sequence of hERG potassium channel (Q12809 whole entry): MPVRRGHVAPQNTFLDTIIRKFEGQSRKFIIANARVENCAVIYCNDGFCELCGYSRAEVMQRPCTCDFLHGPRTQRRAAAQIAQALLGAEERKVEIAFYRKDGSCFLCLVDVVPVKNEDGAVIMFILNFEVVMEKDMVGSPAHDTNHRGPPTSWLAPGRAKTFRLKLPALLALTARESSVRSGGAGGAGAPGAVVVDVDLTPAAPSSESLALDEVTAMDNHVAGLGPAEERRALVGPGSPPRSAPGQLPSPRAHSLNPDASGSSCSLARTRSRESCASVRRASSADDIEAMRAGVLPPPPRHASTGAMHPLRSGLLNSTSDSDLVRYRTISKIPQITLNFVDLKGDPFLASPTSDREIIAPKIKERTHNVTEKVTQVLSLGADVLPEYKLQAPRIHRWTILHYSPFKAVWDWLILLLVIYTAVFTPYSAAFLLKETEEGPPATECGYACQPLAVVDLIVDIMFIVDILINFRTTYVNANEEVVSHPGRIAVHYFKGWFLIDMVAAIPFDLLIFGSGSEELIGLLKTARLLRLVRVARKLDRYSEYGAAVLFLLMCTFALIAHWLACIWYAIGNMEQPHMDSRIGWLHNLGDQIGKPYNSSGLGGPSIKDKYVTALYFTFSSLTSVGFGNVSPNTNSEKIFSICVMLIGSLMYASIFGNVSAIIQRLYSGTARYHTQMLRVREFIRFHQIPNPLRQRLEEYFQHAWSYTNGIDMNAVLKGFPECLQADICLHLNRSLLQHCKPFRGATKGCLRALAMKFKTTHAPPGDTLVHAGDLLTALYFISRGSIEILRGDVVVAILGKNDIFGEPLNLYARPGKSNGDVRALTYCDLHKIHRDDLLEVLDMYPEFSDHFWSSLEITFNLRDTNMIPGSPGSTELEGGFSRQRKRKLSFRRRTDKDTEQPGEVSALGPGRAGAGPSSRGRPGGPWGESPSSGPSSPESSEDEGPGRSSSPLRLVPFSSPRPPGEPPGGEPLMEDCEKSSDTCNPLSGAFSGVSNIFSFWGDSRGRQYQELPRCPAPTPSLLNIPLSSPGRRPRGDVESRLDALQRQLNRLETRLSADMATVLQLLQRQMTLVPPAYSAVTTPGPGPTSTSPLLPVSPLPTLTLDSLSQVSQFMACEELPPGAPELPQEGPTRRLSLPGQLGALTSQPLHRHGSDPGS

[6] = NVSG mice, oral 30 mg/kg, 4 h after administration

concentration at 4 h ([1]; brain, NVSG mice, oral 30 mg/kg, 4 h after administration, read-out: Concentration of compound in brain) [ng/g] | concentration at 4 h ([1]; liver, NVSG mice, oral 30 mg/kg, 4 h after administration, read-out: Concentration of compound in liver) [ng/g] | concentration at 4 h ([1]; lung, NVSG mice, oral 30 mg/kg, 4 h after administration, read-out: Concentration of compound in lung) [ng/g] | concentration at 4 h ([1]; plasma, NVSG mice, oral 30 mg/kg, 4 h after administration, read-out: Concentration of compound in plasma) [ng/mL] | SMILES | Concentration of compound in brain [1, 6] [ng/g] | Concentration of compound in liver [1, 6] [ng/g] | Concentration of compound in lung [1, 6] [ng/g] | Concentration of compound in plasma [1, 6] [ng/mL] | Concentration distribution in tissues of target organs of mice compared with Loxo-292 ([1]; after oral administration) | IC50 [2] [nM] | IC50 [3] [nM] | IC50 [4] [nM] | IC50 [5] [nM]
– | – | – | – | [2H]C([2H])([2H])N1CCN(c2cc(-c3ccc(N4CC5CC(C4)N5Cc4ccc(OC)nc4)nc3)c3c(C#N)cnn3c2)CC1 [Compound 94] | 2883.99 | 70199.89 | 87220.49 | 3174.97 | higher concentration distribution | 169 | 4.62 | 19.8 | –
88.3 | 12900 | 7190 | 14600 | COc1ccc(CN2C3CC2CN(c2ccc(-c4cc(OCC(C)(C)O)cn5ncc(C#N)c45)cn2)C3)cn1 [Selpercatinib, selpercatinib, reference compound] | – | – | – | – | – | – | – | 8.34 | 2750
